In PubChem BioAssay AID1845208 (Molecular Pharmacology Branch, DTP, NCI, 2023):
pIC50: −log10 of the molar value.

Tested on: NCI-H196 SCLC complex tumor spheroid viability
Test: Anticancer human tumor NCI-H196 cell line growth inhibition;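 note: spheroids exposed to compounds for 7 days before readout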;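 for viability, T/C: 100% = DMSO vehicle control wells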
Settings: for pIC50: curve of first compound; for viability, T/C: stronger effect = lower value
Outline: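 Complex tumor spheroids combined malignant cells with endothelial cells and mesenchymal stem cells. DNA-damaging drugs and DNA repair inhibitors were tested alone and in combination, at half-log dilutions down from clinical Cmax (top 10 microM if Cmax unknown), 0.25% DMSO final.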

[1] = second compound 1 µM, first compound 0.0316 µM
[2] = second compound 1 µM, first compound 0.1 µM
[3] = second compound 1 µM, first compound 0.316 µM
[4] = second compound 1 µM, first compound 1 µM
[5] = second compound 1 µM, first compound 3.16 µM
[6] = second compound 1 µM, first compound 10 µM
[7] = second compound 3.16 µM, first compound 0.0316 µM
[8] = second compound 3.16 µM, first compound 0.1 µM
[9] = second compound 3.16 µM, first compound 0.316 µM
[10] = second compound 3.16 µM, first compound 1 µM
[11] = second compound 3.16 µM, first compound 3.16 µM
[12] = second compound 3.16 µM, first compound 10 µM
[13] = second compound 10 µM, first compound 0.0316 µM
[14] = second compound 10 µM, first compound 0.1 µM
[15] = second compound 10 µM, first compound 0.316 µM
[16] = second compound 10 µM, first compound 1 µM
[17] = second compound 10 µM, first compound 3.16 µM
[18] = second compound 10 µM, first compound 10 µM
[19] = second compound 31.6 µM, first compound 0.0316 µM
[20] = second compound 31.6 µM, first compound 0.1 µM
[21] = second compound 31.6 µM, first compound 0.316 µM
[22] = second compound 31.6 µM, first compound 1 µM
[23] = second compound 31.6 µM, first compound 3.16 µM
[24] = second compound 31.6 µM, first compound 10 µM
[25] = second compound 100 µM, first compound 0.0316 µM
[26] = second compound 100 µM, first compound 0.1 µM
[27] = second compound 100 µM, first compound 0.316 µM
[28] = second compound 100 µM, first compound 1 µM
[29] = second compound 100 µM, first compound 3.16 µM
[30] = second compound 100 µM, first compound 10 µM

CC1COCCN1c1cc(-c2ccnn2C)c2ccnc(-c3ccn[nH]3)c2n1 (stereo not given) + Cn1nnc2c(C(N)=O)ncn2c1=O
pIC50 (second compound 1 µM): 5.55
pIC50 (second compound 3.16 µM): 5.67
pIC50 (second compound 10 µM): 5.13
pIC50 (second compound 31.6 µM): 5.35
pIC50 (second compound 100 µM): 5.46
viability, T/C [1]: 84.8%
viability, T/C [2]: 77.5%
viability, T/C [3]: 61.2%
viability, T/C [4]: 59.5%
viability, T/C [5]: 48.1%
viability, T/C [6]: 44.4%
viability, T/C [7]: 92.6%
viability, T/C [8]: 77.7%
viability, T/C [9]: 62.2%
viability, T/C [10]: 56.7%
viability, T/C [11]: 44.1%
viability, T/C [12]: 47.3%
viability, T/C [13]: 98.3%
viability, T/C [14]: 85.4%
viability, T/C [15]: 75.7%
viability, T/C [16]: 58.2%
viability, T/C [17]: 54%
viability, T/C [18]: 48.8%
viability, T/C [19]: 95.2%
viability, T/C [20]: 85.5%
viability, T/C [21]: 71.4%
viability, T/C [22]: 59.6%
viability, T/C [23]: 51.6%
viability, T/C [24]: 46.6%
viability, T/C [25]: 90.3%
viability, T/C [26]: 76.8%
viability, T/C [27]: 69.9%
viability, T/C [28]: 57.9%
viability, T/C [29]: 49.7%
viability, T/C [30]: 44.8%

COc1cc(C)[nH]c(=O)c1CN1CCc2c(Cl)cc(C(OC)C3COC3)c(Cl)c2C1=O (stereo not given) + Cn1nnc2c(C(N)=O)ncn2c1=O
pIC50 (second compound 1 µM): < 5.00
pIC50 (second compound 3.16 µM): < 5.00
pIC50 (second compound 10 µM): < 5.00
pIC50 (second compound 31.6 µM): < 5.00
pIC50 (second compound 100 µM): < 5.00
viability, T/C [1]: 91.4%
viability, T/C [2]: 103%
viability, T/C [3]: 89.9%
viability, T/C [4]: 86.8%
viability, T/C [5]: 94%
viability, T/C [6]: 92%
viability, T/C [7]: 95.2%
viability, T/C [8]: 98.8%
viability, T/C [9]: 99.2%
viability, T/C [10]: 105%
viability, T/C [11]: 90.9%
viability, T/C [12]: 97.3%
viability, T/C [13]: 106%
viability, T/C [14]: 104%
viability, T/C [15]: 99.7%
viability, T/C [16]: 103%
viability, T/C [17]: 98.2%
viability, T/C [18]: 102%
viability, T/C [19]: 104%
viability, T/C [20]: 107%
viability, T/C [21]: 101%
viability, T/C [22]: 106%
viability, T/C [23]: 99%
viability, T/C [24]: 105%
viability, T/C [25]: 102%
viability, T/C [26]: 98.9%
viability, T/C [27]: 99.3%
viability, T/C [28]: 87.1%
viability, T/C [29]: 96.4%
viability, T/C [30]: 94.7%

COc1ccc([C@@H](O)c2cc(-c3ncnc4cc(N5CCOCC5)ccc34)c(F)cc2Cl)nn1 + Cn1nnc2c(C(N)=O)ncn2c1=O
pIC50 (second compound 1 µM): < 5.00
pIC50 (second compound 3.16 µM): < 5.00
pIC50 (second compound 10 µM): < 5.00
pIC50 (second compound 31.6 µM): < 5.00
pIC50 (second compound 100 µM): < 5.00
viability, T/C [1]: 93.8%
viability, T/C [2]: 97.1%
viability, T/C [3]: 87.3%
viability, T/C [4]: 73.5%
viability, T/C [5]: 65.6%
viability, T/C [6]: 52%
viability, T/C [7]: 98.8%
viability, T/C [8]: 92.5%
viability, T/C [9]: 96.7%
viability, T/C [10]: 82.5%
viability, T/C [11]: 68.9%
viability, T/C [12]: 52.9%
viability, T/C [13]: 108%
viability, T/C [14]: 97.3%
viability, T/C [15]: 96.5%
viability, T/C [16]: 80.1%
viability, T/C [17]: 63.7%
viability, T/C [18]: 55.5%
viability, T/C [19]: 109%
viability, T/C [20]: 101%
viability, T/C [21]: 92.5%
viability, T/C [22]: 80.1%
viability, T/C [23]: 71.4%
viability, T/C [24]: 59.3%
viability, T/C [25]: 105%
viability, T/C [26]: 99.9%
viability, T/C [27]: 95.7%
viability, T/C [28]: 91.2%
viability, T/C [29]: 70.3%
viability, T/C [30]: 57%

Cc1cc(C)c(CNC(=O)c2cc(-c3ccc(CN4CCOCC4)cc3)cc3c2cnn3C2CCCC2)c(=O)[nH]1 + Cn1nnc2c(C(N)=O)ncn2c1=O
pIC50 (second compound 1 µM): < 5.00
pIC50 (second compound 3.16 µM): < 5.00
pIC50 (second compound 10 µM): < 5.00
pIC50 (second compound 31.6 µM): < 5.00
pIC50 (second compound 100 µM): < 5.00
viability, T/C [1]: 91%
viability, T/C [2]: 102%
viability, T/C [3]: 92.1%
viability, T/C [4]: 92.8%
viability, T/C [5]: 90.6%
viability, T/C [6]: 105%
viability, T/C [7]: 93.6%
viability, T/C [8]: 94.5%
viability, T/C [9]: 101%
viability, T/C [10]: 104%
viability, T/C [11]: 100%
viability, T/C [12]: 101%
viability, T/C [13]: 99.3%
viability, T/C [14]: 97.8%
viability, T/C [15]: 98.8%
viability, T/C [16]: 93.9%
viability, T/C [17]: 94.9%
viability, T/C [18]: 96%
viability, T/C [19]: 98.5%
viability, T/C [20]: 102%
viability, T/C [21]: 108%
viability, T/C [22]: 110%
viability, T/C [23]: 104%
viability, T/C [24]: 94.7%
viability, T/C [25]: 94.5%
viability, T/C [26]: 98.5%
viability, T/C [27]: 98.9%
viability, T/C [28]: 99%
viability, T/C [29]: 99.8%
viability, T/C [30]: 96%

Cc1sc2c(c1C)C(c1ccc(Cl)cc1)=NC(CC(=O)Nc1ccc(O)cc1)c1nnc(C)n1-2 (stereo not given) + Cn1nnc2c(C(N)=O)ncn2c1=O
pIC50 (second compound 1 µM): 6.23
pIC50 (second compound 3.16 µM): 6.17
pIC50 (second compound 10 µM): 6.15
pIC50 (second compound 31.6 µM): 5.87
pIC50 (second compound 100 µM): 5.61
viability, T/C (second compound 1 µM, first compound 0.00949 µM): 102%
viability, T/C (second compound 1 µM, first compound 0.03 µM): 99.5%
viability, T/C (second compound 1 µM, first compound 0.0949 µM): 86.6%
viability, T/C (second compound 1 µM, first compound 0.3 µM): 68.1%
viability, T/C (second compound 1 µM, first compound 0.949 µM): 37.3%
viability, T/C (second compound 1 µM, first compound 3 µM): 21.1%
viability, T/C (second compound 3.16 µM, first compound 0.00949 µM): 103%
viability, T/C (second compound 3.16 µM, first compound 0.03 µM): 97.4%
viability, T/C (second compound 3.16 µM, first compound 0.0949 µM): 98.8%
viability, T/C (second compound 3.16 µM, first compound 0.3 µM): 75.5%
viability, T/C (second compound 3.16 µM, first compound 0.949 µM): 39%
viability, T/C (second compound 3.16 µM, first compound 3 µM): 23.3%
viability, T/C (second compound 10 µM, first compound 0.00949 µM): 105%
viability, T/C (second compound 10 µM, first compound 0.03 µM): 102%
viability, T/C (second compound 10 µM, first compound 0.0949 µM): 91.6%
viability, T/C (second compound 10 µM, first compound 0.3 µM): 69.1%
viability, T/C (second compound 10 µM, first compound 0.949 µM): 44%
viability, T/C (second compound 10 µM, first compound 3 µM): 27.6%
viability, T/C (second compound 31.6 µM, first compound 0.00949 µM): 108%
viability, T/C (second compound 31.6 µM, first compound 0.03 µM): 106%
viability, T/C (second compound 31.6 µM, first compound 0.0949 µM): 93.7%
viability, T/C (second compound 31.6 µM, first compound 0.3 µM): 87.1%
viability, T/C (second compound 31.6 µM, first compound 0.949 µM): 54.5%
viability, T/C (second compound 31.6 µM, first compound 3 µM): 34.9%
viability, T/C (second compound 100 µM, first compound 0.00949 µM): 115%
viability, T/C (second compound 100 µM, first compound 0.03 µM): 105%
viability, T/C (second compound 100 µM, first compound 0.0949 µM): 103%
viability, T/C (second compound 100 µM, first compound 0.3 µM): 85%
viability, T/C (second compound 100 µM, first compound 0.949 µM): 67%
viability, T/C (second compound 100 µM, first compound 3 µM): 46.4%

[2H]c1nc(C)nc([2H])c1-c1cc(NC[C@@H](C)c2cccc3c(C(=O)NC)ccnc23)ncn1 + Cn1nnc2c(C(N)=O)ncn2c1=O
pIC50 (second compound 1 µM): < 5.00
pIC50 (second compound 3.16 µM): < 5.00
pIC50 (second compound 10 µM): < 5.00
pIC50 (second compound 31.6 µM): < 5.00
pIC50 (second compound 100 µM): < 5.00
viability, T/C [1]: 94.1%
viability, T/C [2]: 96.6%
viability, T/C [3]: 97.9%
viability, T/C [4]: 99.5%
viability, T/C [5]: 105%
viability, T/C [6]: 91.2%
viability, T/C [7]: 100%
viability, T/C [8]: 104%
viability, T/C [9]: 98.5%
viability, T/C [10]: 97.5%
viability, T/C [11]: 90.8%
viability, T/C [12]: 96.9%
viability, T/C [13]: 110%
viability, T/C [14]: 99.8%
viability, T/C [15]: 97.7%
viability, T/C [16]: 101%
viability, T/C [17]: 101%
viability, T/C [18]: 107%
viability, T/C [19]: 109%
viability, T/C [20]: 104%
viability, T/C [21]: 108%
viability, T/C [22]: 112%
viability, T/C [23]: 99.8%
viability, T/C [24]: 118%
viability, T/C [25]: 101%
viability, T/C [26]: 102%
viability, T/C [27]: 99.3%
viability, T/C [28]: 102%
viability, T/C [29]: 103%
viability, T/C [30]: 104%
